Reference: ChEMBL document CHEMBL1201862, “PubChem BioAssay data set” (2004)
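Exposure lasted 48 hours, with cells grown in 96-well plates and compounds tested at five concentrations. GI50 is the concentration that inhibits growth by half.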 Calls of active or inactive are those of the source. Rule as the data show it: active = GI50 up to about 1.1 µM and inactive = higher.

Columns and labels:
Assay in all cases: NCI tumour cell line growth inhibition, 48 h
[1] = test system: SR
[2] = test system: UO-31
[3] = test system: SK-MEL-28
[4] = test system: SNB-75
[5] = test system: M14
[6] = test system: OVCAR-8
[7] = test system: NCI-H522
[8] = test system: OVCAR-4
[9] = test system: SF-295
[10] = test system: SF-539
[11] = test system: LOX IMVI
[12] = test system: NCI-H23
[13] = test system: HCT-116
[14] = test system: HCC 2998
[15] = test system: PC-3
[16] = test system: MCF7
[17] = test system: NCI/ADR-RES
[18] = test system: MDA-MB-435

Measured: GI50

CCOc1cc2cnc3c4cc(OC)c(OC)cc4ccc3c2cc1OC
inactive: [1] 27.3 µM | [2] > 100 µM | [3] > 100 µM | [4] > 100 µM | [5] > 100 µM | [6] 43.4 µM | [7] 15.2 µM | [8] 86.7 µM | [9] 26.4 µM | [10] > 100 µM | [11] 65 µM | [12] > 100 µM | [13] > 100 µM | [14] > 100 µM

O=C1CCCC2=C1CC1=C(CCCC1=O)N2c1cccc([N+](=O)[O-])c1
inactive: [1] > 100 µM | [2] > 100 µM | [3] > 100 µM | [15] > 100 µM | [4] > 100 µM | [5] > 100 µM | [16] 64 µM | [17] > 100 µM | [6] > 100 µM | [8] > 100 µM | [10] > 100 µM | [11] > 100 µM | [12] > 100 µM | [14] > 100 µM

Cc1nc(N)sc1C(=O)/C=C/c1ccc(/C=C/C(=O)c2sc(NC(=O)CCCCCCCCC(=O)Nc3nc(C)c(C(=O)/C=C/c4ccc(/C=C/C(=O)c5sc(N)nc5C)cc4)s3)nc2C)cc1
inactive: [1] > 100 µM | [2] > 100 µM | [3] 52.8 µM | [5] > 100 µM | [6] > 100 µM | [7] 64.6 µM | [8] > 100 µM | [9] > 100 µM | [10] > 100 µM | [11] > 100 µM | [12] > 100 µM | [13] 92 µM | [14] > 100 µM

COc1ccc(N2C(=O)/C(=C/c3ccc(N(CCC#N)CCC#N)cc3C)N=C2/C=C\c2ccccc2)cc1
inactive: [1] 44 µM | [2] 14 µM | [3] 31.4 µM | [4] > 100 µM | [5] 27.1 µM | [6] 42.7 µM | [7] 17 µM | [8] 47 µM | [9] 35.5 µM | [10] 10.8 µM | [11] 28.8 µM | [12] 49.5 µM | [13] 76.6 µM

COc1cc(C2(C)SCCCS2)c(I)c(OC)c1OC
inactive: [1] > 100 µM | [2] > 100 µM | [3] > 100 µM | [4] > 100 µM | [5] > 100 µM | [6] > 100 µM | [7] > 100 µM | [8] > 100 µM | [9] > 100 µM | [10] > 100 µM | [11] > 100 µM | [12] > 100 µM | [13] > 100 µM | [14] > 100 µM

O=c1[nH]nc(Nc2ccc(Cl)cc2)c2nnn(-c3ccc([N+](=O)[O-])cc3)c12
inactive: [18] 30.1 µM | [1] 28.1 µM | [15] 18.3 µM | [4] 39.8 µM | [5] 49.4 µM | [16] 16.6 µM | [17] 23.1 µM | [6] 16.2 µM | [7] 4.47 µM | [8] 23.8 µM | [9] 25.3 µM | [10] 17.5 µM | [11] 14.5 µM | [12] 8.59 µM | [13] 13.9 µM | [14] 15.2 µM

Cc1cc(NS(=O)(=O)c2ccc(NC(=O)c3ccc(Cl)c4c(Nc5ccc(S(=O)(=O)N=C(N)N)cc5)c5ccccc5nc34)cc2)no1
inactive: [1] 27.6 µM | [2] > 100 µM | [3] 87.5 µM | [4] 29.7 µM | [5] > 100 µM | [6] 38.2 µM | [7] 20 µM | [8] 68.5 µM | [9] > 100 µM | [10] 30.5 µM | [11] 28.1 µM | [12] > 100 µM | [13] 36 µM | [14] 22.3 µM

COc1cc(N)c2[nH]c3c(C)ccc(C)c3c2c1
inactive: [1] > 100 µM | [2] > 100 µM | [3] > 100 µM | [4] > 100 µM | [5] > 100 µM | [6] > 100 µM | [7] > 100 µM | [8] > 100 µM | [9] > 100 µM | [10] > 100 µM | [11] > 100 µM | [12] > 10 µM | [13] > 100 µM | [14] > 100 µM

O=C(O)C1(c2ccccc2)CCCNCC1 (configuration not stated)
inactive: [1] > 100 µM | [2] > 100 µM | [3] > 100 µM | [4] > 100 µM | [5] > 100 µM | [6] > 100 µM | [7] > 100 µM | [8] > 100 µM | [9] > 100 µM | [11] > 100 µM | [12] > 100 µM | [13] > 100 µM | [14] > 100 µM

O=C(O)c1nccnc1C(=O)O
inactive: [1] > 100 µM | [2] > 100 µM | [3] > 100 µM | [4] > 100 µM | [7] > 100 µM | [8] > 100 µM | [9] > 100 µM | [10] > 100 µM | [11] > 100 µM | [12] > 100 µM | [13] > 100 µM | [14] > 100 µM

COC(=O)C1=C(C(=O)OC)C2(C)OC1C(=O)C21CC1 (configuration not stated)
inactive: [1] 19 µM | [2] 79.6 µM | [4] 28.9 µM | [5] 15.3 µM | [6] 24 µM | [7] 11.2 µM | [8] 10.6 µM | [9] 44 µM | [10] 20.7 µM | [11] 18.8 µM | [12] 22 µM | [13] 19.8 µM | [14] 25.5 µM

CC(=O)OC1CC2C(C)(C)C(=O)C=C[C@]2(C)C2CCC3(C)C(c4ccoc4)C(=O)C4OC43[C@]12C (some centres not stated)
inactive: [1] 11.5 µM | [2] 20.2 µM | [3] 16.9 µM | [4] 22.4 µM | [5] 17.3 µM | [6] 20.8 µM | [7] 12.9 µM | [8] 15.1 µM | [9] 16.9 µM | [10] 20.1 µM | [11] 13.2 µM | [12] 15.3 µM | [13] 13 µM | [14] 16.7 µM

C=C[C@@]12CCCCC1C/C(=C(/O)OC)C(=O)C2 (some centres not stated)
inactive: [1] > 100 µM | [2] > 100 µM | [3] > 100 µM | [4] > 100 µM | [5] > 100 µM | [6] > 100 µM | [7] > 100 µM | [8] > 100 µM | [9] > 100 µM | [10] > 100 µM | [11] > 100 µM | [12] > 100 µM | [13] > 100 µM | [14] > 100 µM

CC(C)=CCC/C(C)=C/CC/C(C)=C/Cc1c(O)c2ccccc2oc1=O
inactive: [1] > 100 µM | [2] 48.8 µM | [3] > 100 µM | [4] > 100 µM | [5] > 100 µM | [6] > 100 µM | [7] > 100 µM | [8] > 100 µM | [9] > 100 µM | [10] > 100 µM | [11] > 100 µM | [12] 55.8 µM | [13] 89.1 µM | [14] > 100 µM
